According to ChEMBL document CHEMBL1201862, “PubChem BioAssay data set” (2004):
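The compound was tested at five concentrations on cells cultured in 96-well plates, with a 48-hour exposure period. GI50: concentration for 50% inhibition of growth.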 Active and inactive are the calls of the source. Cut-off read from the data, not from the text of the source: active = GI50 up to about 1.1 µM and inactive = higher.

Legend:
Assay in all cases: growth of human tumour cells (NCI), 48 h
NCI-H226 = test system: NCI-H226
NCI-H522 = test system: NCI-H522
HCT-116 = test system: HCT-116
SF-539 = test system: SF-539
KM12 = test system: KM12
RPMI-8226 = test system: RPMI-8226
SN12C = test system: SN12C
PC-3 = test system: PC-3
NCI-H23 = test system: NCI-H23
MDA-N = test system: MDA-N
Hs-578T = test system: Hs-578T
HOP-62 = test system: HOP-62
BT-549 = test system: BT-549
NCI-H460 = test system: NCI-H460
HL-60 = test system: HL-60
NCI/ADR-RES = test system: NCI/ADR-RES
A498 = test system: A498
OVCAR-4 = test system: OVCAR-4
786-0 = test system: 786-0
A549 = test system: A549

Structure (SMILES)	GI50 (NCI-H226)	GI50 (NCI-H522)	GI50 (HCT-116)	GI50 (SF-539)	GI50 (KM12)	GI50 (RPMI-8226)	GI50 (SN12C)	GI50 (PC-3)	GI50 (NCI-H23)	GI50 (MDA-N)	GI50 (Hs-578T)	GI50 (HOP-62)	GI50 (BT-549)	GI50 (NCI-H460)	GI50 (HL-60)	GI50 (NCI/ADR-RES)	GI50 (A498)	GI50 (OVCAR-4)	GI50 (786-0)	GI50 (A549)
O=C(CCn1ccnc1[N+](=O)[O-])NCCCn1ccnc1[N+](=O)[O-]	> 100 µM (inactive)	> 100 µM (inactive)	> 100 µM (inactive)	> 100 µM (inactive)	> 100 µM (inactive)	> 100 µM (inactive)	> 100 µM (inactive)	> 100 µM (inactive)	> 100 µM (inactive)	> 100 µM (inactive)	> 100 µM (inactive)	> 100 µM (inactive)	> 100 µM (inactive)	> 100 µM (inactive)	> 100 µM (inactive)	> 100 µM (inactive)	> 100 µM (inactive)	> 100 µM (inactive)	> 100 µM (inactive)	> 100 µM (inactive)
CC1(C)C2CC(O)C1CCC2=O (stereo not given)	> 100 µM (inactive)	> 100 µM (inactive)	> 100 µM (inactive)	> 100 µM (inactive)	> 100 µM (inactive)	> 100 µM (inactive)	> 100 µM (inactive)	> 100 µM (inactive)	> 100 µM (inactive)	> 100 µM (inactive)	> 100 µM (inactive)	> 100 µM (inactive)	> 100 µM (inactive)	> 100 µM (inactive)	> 100 µM (inactive)	> 100 µM (inactive)	> 100 µM (inactive)	> 100 µM (inactive)	> 100 µM (inactive)	> 100 µM (inactive)
Cc1ccc(C(CCO)CCO)nc1	> 100 µM (inactive)	> 100 µM (inactive)	> 100 µM (inactive)	> 100 µM (inactive)	> 100 µM (inactive)	> 100 µM (inactive)	> 100 µM (inactive)	> 100 µM (inactive)	> 100 µM (inactive)	> 100 µM (inactive)	> 100 µM (inactive)	> 100 µM (inactive)	> 100 µM (inactive)	> 100 µM (inactive)	> 100 µM (inactive)	> 100 µM (inactive)	> 100 µM (inactive)	> 100 µM (inactive)	> 100 µM (inactive)	> 100 µM (inactive)
Cc1csc2c(=O)n(C3OC(CO)C(O)C3O)c(=O)[nH]c12 (stereo not given)	> 100 µM (inactive)	> 100 µM (inactive)	> 100 µM (inactive)	> 100 µM (inactive)	> 100 µM (inactive)	> 100 µM (inactive)	> 100 µM (inactive)	> 100 µM (inactive)	> 100 µM (inactive)	> 100 µM (inactive)	> 100 µM (inactive)	> 100 µM (inactive)	> 100 µM (inactive)	> 100 µM (inactive)	> 100 µM (inactive)	> 100 µM (inactive)	> 100 µM (inactive)	> 100 µM (inactive)	> 100 µM (inactive)	> 100 µM (inactive)
CC1=CC(=O)/C(=C/NC(=S)Nc2ccccc2)C(=O)O1	> 100 µM (inactive)	53.3 µM (inactive)	> 100 µM (inactive)	> 100 µM (inactive)	> 100 µM (inactive)	> 100 µM (inactive)	> 100 µM (inactive)	> 100 µM (inactive)	> 100 µM (inactive)	> 100 µM (inactive)	> 100 µM (inactive)	> 100 µM (inactive)	> 100 µM (inactive)	> 100 µM (inactive)	> 100 µM (inactive)	> 100 µM (inactive)	> 100 µM (inactive)	> 100 µM (inactive)	> 100 µM (inactive)	> 100 µM (inactive)
Cn1c2cc(Cl)ccc2c2ccc3c(c21)C(=O)C=CC3=O	> 100 µM (inactive)	8.13 µM (inactive)	20.8 µM (inactive)	> 55 µM (inactive)	> 100 µM (inactive)	5.57 µM (inactive)	14 µM (inactive)	25.8 µM (inactive)	20 µM (inactive)	26.1 µM (inactive)	46.9 µM (inactive)	> 100 µM (inactive)	25.6 µM (inactive)	> 100 µM (inactive)	13.5 µM (inactive)	> 52.4 µM (inactive)	68.7 µM (inactive)	20.7 µM (inactive)	18.8 µM (inactive)	> 100 µM (inactive)
O=C1/C(=C/c2ccccc2)CCC/C1=C\c1ccc(O)c(CN2CCCCC2)c1	6.41 µM (inactive)	2.24 µM (inactive)	1.57 µM (inactive)	2.95 µM (inactive)	0.933 µM (active)	3.27 µM (inactive)	2.82 µM (inactive)	4.56 µM (inactive)	3.96 µM (inactive)	2.56 µM (inactive)	3.93 µM (inactive)	13.5 µM (inactive)	2.84 µM (inactive)	4.66 µM (inactive)	3.49 µM (inactive)	2.69 µM (inactive)	5.37 µM (inactive)	5.5 µM (inactive)	1.69 µM (inactive)	7.59 µM (inactive)
CN(C)CCCCN1c2ccccc2Sc2cc(N=[N+]=[N-])ccc21	3.28 µM (inactive)	1.6 µM (inactive)	1.78 µM (inactive)	1.96 µM (inactive)	1.73 µM (inactive)	2.38 µM (inactive)	3.48 µM (inactive)	1.86 µM (inactive)	9.66 µM (inactive)	1.72 µM (inactive)	3.03 µM (inactive)	2.28 µM (inactive)	11 µM (inactive)	1.89 µM (inactive)	2.11 µM (inactive)	1.75 µM (inactive)	10 µM (inactive)	2.4 µM (inactive)	1.69 µM (inactive)	1.79 µM (inactive)
O=C1c2ccccc2C(=O)N1[C@@H](Cc1ccccc1)C(=O)n1cccc1CO	> 100 µM (inactive)	> 100 µM (inactive)	> 100 µM (inactive)	> 100 µM (inactive)	> 100 µM (inactive)	93.8 µM (inactive)	> 100 µM (inactive)	> 100 µM (inactive)	> 100 µM (inactive)	> 100 µM (inactive)	> 100 µM (inactive)	> 100 µM (inactive)	> 100 µM (inactive)	> 100 µM (inactive)	> 100 µM (inactive)	> 100 µM (inactive)	> 100 µM (inactive)	> 100 µM (inactive)	> 100 µM (inactive)	> 100 µM (inactive)
CO/C(N)=C(C#N)/N=C/c1ccccc1	> 100 µM (inactive)	> 100 µM (inactive)	> 100 µM (inactive)	> 100 µM (inactive)	> 100 µM (inactive)	> 100 µM (inactive)	> 100 µM (inactive)	> 100 µM (inactive)	> 100 µM (inactive)	> 100 µM (inactive)	> 100 µM (inactive)	> 100 µM (inactive)	> 100 µM (inactive)	> 100 µM (inactive)	35.7 µM (inactive)	> 100 µM (inactive)	> 100 µM (inactive)	71 µM (inactive)	> 100 µM (inactive)	> 100 µM (inactive)
Nc1nc(Cl)cc(NCC2(CO)CC(Cc3ccccc3)C2)n1 (stereo not given)	13.2 µM (inactive)	36.4 µM (inactive)	5.81 µM (inactive)	59.3 µM (inactive)	35.1 µM (inactive)	15 µM (inactive)	> 92.3 µM (inactive)	30.6 µM (inactive)	34.4 µM (inactive)	25.1 µM (inactive)	38.7 µM (inactive)	> 66.5 µM (inactive)	20.4 µM (inactive)	22.5 µM (inactive)	4.71 µM (inactive)	9.73 µM (inactive)	10.1 µM (inactive)	24.2 µM (inactive)	> 60.8 µM (inactive)	19.1 µM (inactive)
COc1cc2c(cc1OC)C13CC[N+]4(C)CC5=CCOC6CC(=O)N2C1C6C5CC34[O-] (stereo not given)	> 100 µM (inactive)	> 100 µM (inactive)	> 100 µM (inactive)	> 100 µM (inactive)	> 100 µM (inactive)	> 100 µM (inactive)	> 100 µM (inactive)	> 100 µM (inactive)	> 100 µM (inactive)	> 100 µM (inactive)	> 100 µM (inactive)	> 100 µM (inactive)	> 100 µM (inactive)	> 100 µM (inactive)	> 100 µM (inactive)	> 100 µM (inactive)	> 100 µM (inactive)	> 100 µM (inactive)	> 100 µM (inactive)	> 100 µM (inactive)
O=[N+]([O-])c1ccc(Sc2c3ccccc3nc3ccccc23)nc1	16.3 µM (inactive)	2.73 µM (inactive)	2.09 µM (inactive)	16.7 µM (inactive)	23.8 µM (inactive)	2.21 µM (inactive)	13.2 µM (inactive)	14.8 µM (inactive)	6.84 µM (inactive)	5.12 µM (inactive)	19.4 µM (inactive)	23.3 µM (inactive)	14.1 µM (inactive)	23.2 µM (inactive)	4.48 µM (inactive)	19 µM (inactive)	18.5 µM (inactive)	4.69 µM (inactive)	2.2 µM (inactive)	26.2 µM (inactive)
O=C1/C(=N\NC(=S)NC2CCCCC2)c2cc([N+](=O)[O-])ccc2N1CN1CCOCC1	19.1 µM (inactive)	10 µM (inactive)	3.57 µM (inactive)	11.4 µM (inactive)	4.81 µM (inactive)	11.3 µM (inactive)	3.72 µM (inactive)	4.7 µM (inactive)	5.93 µM (inactive)	6.08 µM (inactive)	15 µM (inactive)	10.3 µM (inactive)	4.86 µM (inactive)	2.55 µM (inactive)	3.32 µM (inactive)	3.26 µM (inactive)	4.8 µM (inactive)	4.62 µM (inactive)	5.52 µM (inactive)	4.05 µM (inactive)
